How the values were obtained:
[1] = tested on: sunflower entry 1-hybrid (WT × IMI restorer, A205V hetero); experiment: field phytotoxicity trial North Dakota 2006 (Example 3); format: in vivo
Experimental: (§1) • Spray volume: 10 gallons per acre (GPA) (or 100 liters/ha) for backpack sprayer or 20 GPA (or 200 liters/ha) for tractor mounted boom • Growth Stage at Herbicide Application: 2-4 leaves • Entry 15 (WT Maintainer line) was left unsprayed in all treatment blocks.
(§2) Phytotoxicity ratings were assessed at 7 and 21 days following herbicide application.
(§3) The data was subjected to an ANOVA analysis and the means from the 3 repetitions are presented in Table 7 (phytotoxicity at 7 days post-treatment) and Table 8 (phytotoxicity at 21 days post-treatment).

[2] = tested on: sunflower entry 10-hybrid (IMI CMS × GM40 restorer, A205V/A122T hetero/double); experiment: as above; format: in vivo
Experimental: as §1, §2, §3

[3] = tested on: sunflower entry 11-hybrid (GM40 CMS × IMI restorer, A205V/A122T hetero/double); experiment: as above; format: in vivo
Experimental: as §1, §2, §3

[4] = tested on: sunflower entry 12-hybrid (IMI CMS × GM40 restorer, A205V/A122T hetero/double); experiment: as above; format: in vivo
Experimental: as §1, §2, §3

[5] = tested on: sunflower entry 13-hybrid (GM40 CMS × GM40 restorer, A122T homo); experiment: as above; format: in vivo
Experimental: as §1, §2, §3

[6] = tested on: sunflower entry 14-hybrid (GM40 CMS × GM40 restorer, A122T homo); experiment: as above; format: in vivo
Experimental: as §1, §2, §3

[7] = tested on: sunflower entry 15-hybrid (WT × GM40 restorer, A122T hetero); experiment: as above; format: in vivo
Experimental: as §1, §2, §3

[8] = tested on: sunflower entry 16-hybrid (WT × GM40 restorer, A122T hetero); experiment: as above; format: in vivo
Experimental: as §1, §2, §3

[9] = tested on: sunflower entry 3-hybrid (WT × IMI restorer, A205V hetero); experiment: as above; format: in vivo
Experimental: as §1, §2, §3

[10] = tested on: sunflower entry 4-line (IMI Restorer, A205V homo); experiment: as above; format: in vivo
Experimental: as §1, §2, §3

[11] = tested on: sunflower entry 6-hybrid (IMI CMS × IMI restorer, A205V homo); experiment: as above; format: in vivo
Experimental: as §1, §2, §3

[12] = tested on: sunflower entry 7-hybrid (WT-CMS × IMI restorer, A205V hetero); experiment: as above; format: in vivo
Experimental: as §1, §2, §3

[13] = tested on: sunflower entry 8-hybrid (WT × GM40 restorer, A122T hetero); experiment: as above; format: in vivo
Experimental: as §1, §2, §3

[14] = tested on: sunflower entry 9-line (GM40 restorer, A122T homo); experiment: as above; format: in vivo
Experimental: as §1, §2, §3

[15] = tested on: AHAS enzyme of A122T homozygous hybrid (cmsGM40 × R733); experiment: AHAS enzyme activity assay, Set 1; format: biochemical, sunflower; conditions: 100 μM, Set 1 (FIG. 13)
Experimental: (§4) Twelve greenhouse grown sunflower plants from each of the lines depicted in Table 21 were bulked and subjected to an AHAS enzyme activity assay via the method of Singh et al. (1988) Anal. Biochem. 171:173-179. Each activity assay was repeated twice. Due to the large number of samples, the experiment was split into two sets (Table 21).
(§5) Young, actively growing leaves, from four week old plantlets, were ground in a mortar and pestle with liquid N2 and extracted with a buffer composed of 100 mM Pyruvate, 200 mM KH2PO4, 20 mM MgCl2, 2 mM thiamine pyrophosphate and […]. Plant extracts were then spun through a 10 mL Zeba™ TM desalt spin column (Pierce #89893) as per the manufacturer's recommendation. The inhibition assay was performed as described by Singh et al. (1988) Anal. Biochem. 171:173-179. Assays were conducted in a 96-well format. Fifty μl of inhibitor was added to each well containing 50 μl of soluble protein extract to give final concentrations of 0.78, 1.56, 3.125, 6.25, 12.5, 25, 50 and 100 μM imazamox or 0.78, 1.56, 3.125, 6.25, 12.5, 25, 50 and 100 μM imazapyr. Zero herbicide controls were also included for each line. Reactions were processed as outlined by Singh et al. (1988) Anal. Biochem. 171:173-179. Absorbance was measured at 530 nm. AHAS activity, expressed as the mean of the absorbance values for each treatment, was presented as a percentage of the mean of the zero-herbicide controls.

[16] = tested on: AHAS enzyme of A122T/A205V heterozygous hybrid (IA9 × R733); experiment: AHAS enzyme activity assay, Set 1; format: biochemical, sunflower; conditions: 100 μM, Set 1 (FIG. 13)
Experimental: as §4, §5

[17] = tested on: AHAS enzyme of A205V homozygous hybrid (IA9 × RHA426); experiment: AHAS enzyme activity assay, Set 1; format: biochemical, sunflower; conditions: A205V homozygous hybrids; 100 μM; Set 1 (FIG. 13)
Experimental: as §4, §5

[18] = 7 DAT, 50 g ai/ha imazamox + 0.25% NIS
[19] = 7 DAT, 100 g ai/ha imazamox + 0.25% NIS
[20] = 7 DAT, 200 g ai/ha imazamox + 0.25% NIS
[21] = 21 DAT, 50 g ai/ha imazamox + 0.25% NIS
[22] = 21 DAT, 100 g ai/ha imazamox + 0.25% NIS
[23] = 21 DAT, 200 g ai/ha imazamox + 0.25% NIS
[24] = 7 DAT, 160 g ai/ha imazapyr + 0.25% NIS
[25] = 21 DAT, 160 g ai/ha imazapyr + 0.25% NIS

COCc1cnc(C2=NC(C)(C(C)C)C(=O)N2)c(C(=O)O)c1 (stereo not shown) [imazamox]
Phytotoxicity Rating (% Crop Injury) [1, 18]: 8.3%
Phytotoxicity Rating (% Crop Injury) [1, 19]: 35.0%
Phytotoxicity Rating (% Crop Injury) [1, 20]: 48.3%
Phytotoxicity Rating (% Crop Injury) [1, 21]: 6.7%
Phytotoxicity Rating (% Crop Injury) [1, 22]: 25.0%
Phytotoxicity Rating (% Crop Injury) [1, 23]: 73.3%
Phytotoxicity Rating (% Crop Injury) [2, 18]: 3.3%
Phytotoxicity Rating (% Crop Injury) [2, 19]: 3.3%
Phytotoxicity Rating (% Crop Injury) [2, 20]: 10.0%
Phytotoxicity Rating (% Crop Injury) [2, 21]: 0.0%
Phytotoxicity Rating (% Crop Injury) [2, 22]: 0.0%
Phytotoxicity Rating (% Crop Injury) [2, 23]: 1.7%
Phytotoxicity Rating (% Crop Injury) [3, 18]: 0.0%
Phytotoxicity Rating (% Crop Injury) [3, 19]: 3.3%
Phytotoxicity Rating (% Crop Injury) [3, 20]: 11.7%
Phytotoxicity Rating (% Crop Injury) [3, 21]: 0.0%
Phytotoxicity Rating (% Crop Injury) [3, 22]: 0.0%
Phytotoxicity Rating (% Crop Injury) [3, 23]: 3.3%
Phytotoxicity Rating (% Crop Injury) [4, 18]: 10.0%
Phytotoxicity Rating (% Crop Injury) [4, 19]: 10.0%
Phytotoxicity Rating (% Crop Injury) [4, 20]: 11.7%
Phytotoxicity Rating (% Crop Injury) [4, 21]: 3.3%
Phytotoxicity Rating (% Crop Injury) [4, 22]: 3.3%
Phytotoxicity Rating (% Crop Injury) [4, 23]: 3.3%
Phytotoxicity Rating (% Crop Injury) [5, 18]: 3.3%
Phytotoxicity Rating (% Crop Injury) [5, 19]: 5.0%
Phytotoxicity Rating (% Crop Injury) [5, 20]: 10.0%
Phytotoxicity Rating (% Crop Injury) [5, 21]: 0.0%
Phytotoxicity Rating (% Crop Injury) [5, 22]: 1.7%
Phytotoxicity Rating (% Crop Injury) [5, 23]: 3.3%
Phytotoxicity Rating (% Crop Injury) [6, 18]: 5.0%
Phytotoxicity Rating (% Crop Injury) [6, 19]: 6.7%
Phytotoxicity Rating (% Crop Injury) [6, 20]: 11.7%
Phytotoxicity Rating (% Crop Injury) [6, 21]: 0.0%
Phytotoxicity Rating (% Crop Injury) [6, 22]: 3.3%
Phytotoxicity Rating (% Crop Injury) [6, 23]: 5.0%
Phytotoxicity Rating (% Crop Injury) [7, 18]: 10.0%
Phytotoxicity Rating (% Crop Injury) [7, 19]: 11.7%
Phytotoxicity Rating (% Crop Injury) [7, 20]: 16.7%
Phytotoxicity Rating (% Crop Injury) [7, 21]: 6.7%
Phytotoxicity Rating (% Crop Injury) [7, 22]: 11.7%
Phytotoxicity Rating (% Crop Injury) [7, 23]: 30.0%
Phytotoxicity Rating (% Crop Injury) [8, 18]: 10.0%
Phytotoxicity Rating (% Crop Injury) [8, 19]: 15.0%
Phytotoxicity Rating (% Crop Injury) [8, 20]: 23.3%
Phytotoxicity Rating (% Crop Injury) [8, 21]: 6.7%
Phytotoxicity Rating (% Crop Injury) [8, 22]: 16.7%
Phytotoxicity Rating (% Crop Injury) [8, 23]: 31.7%
Phytotoxicity Rating (% Crop Injury) [9, 18]: 11.7%
Phytotoxicity Rating (% Crop Injury) [9, 19]: 46.7%
Phytotoxicity Rating (% Crop Injury) [9, 20]: 60.0%
Phytotoxicity Rating (% Crop Injury) [9, 21]: 11.7%
Phytotoxicity Rating (% Crop Injury) [9, 22]: 46.7%
Phytotoxicity Rating (% Crop Injury) [9, 23]: 76.7%
Phytotoxicity Rating (% Crop Injury) [10, 18]: 6.7%
Phytotoxicity Rating (% Crop Injury) [10, 19]: 6.7%
Phytotoxicity Rating (% Crop Injury) [10, 20]: 18.3%
Phytotoxicity Rating (% Crop Injury) [10, 21]: 5.0%
Phytotoxicity Rating (% Crop Injury) [10, 22]: 6.7%
Phytotoxicity Rating (% Crop Injury) [10, 23]: 15.0%
Phytotoxicity Rating (% Crop Injury) [11, 18]: 5.0%
Phytotoxicity Rating (% Crop Injury) [11, 19]: 8.3%
Phytotoxicity Rating (% Crop Injury) [11, 20]: 26.7%
Phytotoxicity Rating (% Crop Injury) [11, 21]: 0.0%
Phytotoxicity Rating (% Crop Injury) [11, 22]: 3.3%
Phytotoxicity Rating (% Crop Injury) [11, 23]: 21.7%
Phytotoxicity Rating (% Crop Injury) [12, 18]: 13.3%
Phytotoxicity Rating (% Crop Injury) [12, 19]: 43.3%
Phytotoxicity Rating (% Crop Injury) [12, 20]: 56.7%
Phytotoxicity Rating (% Crop Injury) [12, 21]: 3.3%
Phytotoxicity Rating (% Crop Injury) [12, 22]: 40.0%
Phytotoxicity Rating (% Crop Injury) [12, 23]: 78.3%
Phytotoxicity Rating (% Crop Injury) [13, 18]: 13.3%
Phytotoxicity Rating (% Crop Injury) [13, 19]: 13.3%
Phytotoxicity Rating (% Crop Injury) [13, 20]: 25.0%
Phytotoxicity Rating (% Crop Injury) [13, 21]: 6.7%
Phytotoxicity Rating (% Crop Injury) [13, 22]: 11.7%
Phytotoxicity Rating (% Crop Injury) [13, 23]: 28.3%
Phytotoxicity Rating (% Crop Injury) [14, 18]: 1.7%
Phytotoxicity Rating (% Crop Injury) [14, 19]: 5.0%
Phytotoxicity Rating (% Crop Injury) [14, 20]: 10.0%
Phytotoxicity Rating (% Crop Injury) [14, 21]: 0.0%
Phytotoxicity Rating (% Crop Injury) [14, 22]: 0.0%
Phytotoxicity Rating (% Crop Injury) [14, 23]: 3.3%
AHAS activity, % of untreated control [15]: 69%
AHAS activity, % of untreated control [16]: 59%
AHAS activity, % of untreated control [17]: 36%

CC(C)C1(C)N=C(c2ncccc2C(=O)O)NC1=O (stereo not shown) [imazapyr]
Phytotoxicity Rating (% Crop Injury) [1, 24]: 16.7%
Phytotoxicity Rating (% Crop Injury) [1, 25]: 20.0%
Phytotoxicity Rating (% Crop Injury) [2, 24]: 3.3%
Phytotoxicity Rating (% Crop Injury) [2, 25]: 0.0%
Phytotoxicity Rating (% Crop Injury) [3, 24]: 3.3%
Phytotoxicity Rating (% Crop Injury) [3, 25]: 0.0%
Phytotoxicity Rating (% Crop Injury) [4, 24]: 5.0%
Phytotoxicity Rating (% Crop Injury) [4, 25]: 1.7%
Phytotoxicity Rating (% Crop Injury) [5, 24]: 5.0%
Phytotoxicity Rating (% Crop Injury) [5, 25]: 1.7%
Phytotoxicity Rating (% Crop Injury) [6, 24]: 8.3%
Phytotoxicity Rating (% Crop Injury) [6, 25]: 3.3%
Phytotoxicity Rating (% Crop Injury) [7, 24]: 8.3%
Phytotoxicity Rating (% Crop Injury) [7, 25]: 21.7%
Phytotoxicity Rating (% Crop Injury) [8, 24]: 10.0%
Phytotoxicity Rating (% Crop Injury) [8, 25]: 23.3%
Phytotoxicity Rating (% Crop Injury) [9, 24]: 35.0%
Phytotoxicity Rating (% Crop Injury) [9, 25]: 43.3%
Phytotoxicity Rating (% Crop Injury) [10, 24]: 11.7%
Phytotoxicity Rating (% Crop Injury) [10, 25]: 6.7%
Phytotoxicity Rating (% Crop Injury) [11, 24]: 8.3%
Phytotoxicity Rating (% Crop Injury) [11, 25]: 3.3%
Phytotoxicity Rating (% Crop Injury) [12, 24]: 21.7%
Phytotoxicity Rating (% Crop Injury) [12, 25]: 36.7%
Phytotoxicity Rating (% Crop Injury) [13, 24]: 13.3%
Phytotoxicity Rating (% Crop Injury) [13, 25]: 11.7%
Phytotoxicity Rating (% Crop Injury) [14, 24]: 8.3%
Phytotoxicity Rating (% Crop Injury) [14, 25]: 5.0%
AHAS activity, % of untreated control [15]: 64%
AHAS activity, % of untreated control [16]: 60%
AHAS activity, % of untreated control [17]: 42%
